This note sets out measurements from patent US4976950A, “Bone marrow suppressing agents” (The Dow Chemical Company, priority 1989, dated 1990).

Structures are written as SMILES. Several values for one entry are separate records, joined by “and”; a condition that tells them apart may be missing. Equal entries are not always repeated.

Data set [1] is described as follows: Biodistribution: % of injected dose in tissue 2 hours after tail vein injection (NaI scintillation counting). As to conditions: rat i.v. Format: in vivo, Sprague Dawley rats. The method, then:
The rats weighed between 150 and 200 g at the time of injection. After 2 hours the rats were killed by cervical dislocation and dissected. The amount of radioactivity in each tissue was determined by counting in a NaI scintillation counter coupled to a multichannel analyzer. The counts were compared to the counts in 100 μL standards in order to determine the percentage of the dose in each tissue or organ.
(§1) The rats weighed between 150 and 200 g at the time of injection. After 2 hours the rats were killed by cervical dislocation and dissected. The amount of radioactivity in each tissue was determined by counting in a NaI scintillation counter coupled to a multichannel analyzer. The counts were compared to the counts in 100 μL standards in order to determined the percentage of the dose in each tissue or organ. The numbers represent the average of 5 rats per data point.
as §1, with “Sprague Dawley rats were allowed to acclimate for five days then injected with 100 μL of the Sm solution described above via a tail vein. The rats” for “The rats”, “order to determine the percentage” for “order to determined the percentage”, “average of 3 rats per” for “average of 5 rats per”
Sprague Dawley rats were allowed to acclimate for five days then injected with 100 μL of the Ho solution described above via a tail vein. The rats weighed between 150 and 200 g at the time of injection. After 2 hours the rats were killed by cervical dislocation and dissected. The amount of radioactivity in each tissue wa determined by counting in a NaI scintillation counter coupled to a multichannel analyzer. The counts were compared to the counts in 100 μL standards in order to determine the percentage of the dose in each tissue or organ. The numbers represent the average of 3 rats per data point.
Sprague Dawley rats were allowed to acclimate for five days then injected with 100 μL of the solutions described above via a tail vein. The rats weighed between 150 and 200 g at the time of injection. After 2 hours the rats were killed by cervical dislocation. Tissues were taken, weighed and the amount of radioactivity determined by counting in a NaI scintillation counter coupled to a multichannel analyzer. The counts in each tissue were compared to the counts in 100 μL standards in order to determine the percentage of the dose in each tissue or organ.
A Sprague Dawley rat was allowed to acclimate for five days then injected with 175 μL of the solution described above via a tail vein. The rat weighed 155 g at the time of injection. After 2 hours the rat was killed by cervical dislocation and dissected. The amount of radioactivity in each tissue was determined by counting in a NaI scintillation counter coupled to a multichannel analyzer. The counts in each tissue were compared to the counts in […] standards in order to determine the percentage of the dose in each tissue or organ.

In data set [2] the test system is white blood cell. The data set can be described thus: White blood cell count after injection of radionuclide complex (Unopette Test 5856). Type of data set: in vivo, Sprague Dawley rats. The method, then: Six Sprague Dawley rats were allowed to acclimate for a period of 6 days then a sample of blood was taken daily from the tail vein and the white blood cell count determined by a standard manual method (Unopette Test 5856 from Becton-Dickinson and Company). On the fourth day, rats numbered 2, 4 and 6 were injected with 0.9 mCi (33.3 MBq) of the above complex. The rat weight at this time ranged from 160-180 g. On days 7, 8, and 9 the white blood cell count was again determined for each rat. Table VI gives the white blood cell count of the injected (2, 4 and 6) rats compared to the control rats (1, 3, and 5). […]

The mark [3] stands for this setting: 0.9 mCi (33.3 MBq) injected Day 4, individual rats 2, 4, 6 (Day 4 counts 28950, 21300, 17600).

As to `O=P([O-])(O)CN1CCN(CP(=O)(O)O)CCN(CP(=O)([O-])O)CCN(CP(=O)(O)O)CC1.[166Ho]` [Ho-DOTMP], the “% Injection dose in blood” value in data set [1] (Table IV, Blood, 0.6 mM Ho, ligand to Ho ratio approximately 1.5, average of 3 rats) was 0.07%. Moreover, the “% Injection dose in kidney” value in data set [1] (Table IV, Kidney, 0.6 mM Ho, ligand to Ho ratio approximately 1.5, average of 3 rats) was determined as 0.4%. Besides, the “% Injection dose in liver” value in data set [1] (Table IV, Liver, 0.6 mM Ho, ligand to Ho ratio approximately 1.5, average of 3 rats) worked out at 0.07%. For the same compound, the “% Injected dose in blood” value in data set [1] (Table V, Blood, ligand of Example 2, cation exchange purified, average of 3 rats) came to 0.17%. Further, the “% Injected dose in bone” value in data set [1] (Table V, Bone, ligand of Example 2, cation exchange purified, average of 3 rats) came to 64%. In addition, in data set [1] (Table V, Liver, ligand of Example 2, cation exchange purified, average of 3 rats), the “% Injected dose in liver” value worked out at 0.19%. Besides, in data set [2] (0.9 mCi (33.3 MBq) i.v., rats, days 7, 8 and 9, injected on day 4), the “Blood count of treated animals compared to untreated animals” value is on record as “significant drop in the blood count”. For the same compound, in data set [2] (setting [3]), the “White blood cell count, Day 7” value is 5850 and 7400 and 5400; the “White blood cell count, Day 8” value was 7950 and 7500 and 4750; the “White blood cell count, Day 9” value was 7900 and 7550 and 5350.
